Measured values: ChEMBL document CHEMBL1275428, “First case of emergence of atovaquone-proguanil resistance in Plasmodium falciparum during treatment in a traveler in Comoros” (Antimicrob Agents Chemother, 2008)

System: Plasmodium falciparum
Experiment: not given
Type: functional, organism-based
Details: 552 h

Compound | IC50 [nM]
O=C1C(O)=C([C@H]2CC[C@H](c3ccc(Cl)cc3)CC2)C(=O)c2ccccc21 [ATOVAQUONE] | 390

System: Plasmodium falciparum
Experiment: microbe, parasite or virus in culture
Details: not given

Compound | IC50 [nM]
CCc1nc(N)nc(N)c1-c1ccc(Cl)cc1 [PYRIMETHAMINE] | 2510
OC(c1cc(C(F)(F)F)nc2c(C(F)(F)F)cccc12)C1CCCCN1 (stereo unspecified) [MEFLOQUINE] | 34.1
CC1(C)N=C(N)N=C(N)N1c1ccc(Cl)cc1 [CYCLOGUANIL] | 250
CCNCc1cc(Nc2ccnc3cc(Cl)ccc23)ccc1O [DESETHYL AMODIAQUINE] | 30.5
CCCCN(CCCC)CC(O)c1cc(Cl)cc2c1-c1ccc(Cl)cc1/C2=C/c1ccc(Cl)cc1 (stereo unspecified) [LUMEFANTRINE] | 15.2
